Values joined by “and” are separate entries in the source; they are usually repeats but may differ in a detail not shown here. Equal values may be shown once. Active and inactive are the calls of the source. The rule behind the calls is not given here.
Molecular target: Serine/threonine-protein kinase PLK1 (Homo sapiens) (UniProt P53350)
Test: PLK1 polo-box domain peptide-binding inhibitors, SAR follow-up, biochemical, fluorescence polarization, purchased analogs, concentration response (AID 1083)
Conditions: Plk1 PBD peptide binding

Chain of Serine/threonine-protein kinase PLK1 (Homo sapiens) (P53350 whole entry, looked up, the tested form may be a part): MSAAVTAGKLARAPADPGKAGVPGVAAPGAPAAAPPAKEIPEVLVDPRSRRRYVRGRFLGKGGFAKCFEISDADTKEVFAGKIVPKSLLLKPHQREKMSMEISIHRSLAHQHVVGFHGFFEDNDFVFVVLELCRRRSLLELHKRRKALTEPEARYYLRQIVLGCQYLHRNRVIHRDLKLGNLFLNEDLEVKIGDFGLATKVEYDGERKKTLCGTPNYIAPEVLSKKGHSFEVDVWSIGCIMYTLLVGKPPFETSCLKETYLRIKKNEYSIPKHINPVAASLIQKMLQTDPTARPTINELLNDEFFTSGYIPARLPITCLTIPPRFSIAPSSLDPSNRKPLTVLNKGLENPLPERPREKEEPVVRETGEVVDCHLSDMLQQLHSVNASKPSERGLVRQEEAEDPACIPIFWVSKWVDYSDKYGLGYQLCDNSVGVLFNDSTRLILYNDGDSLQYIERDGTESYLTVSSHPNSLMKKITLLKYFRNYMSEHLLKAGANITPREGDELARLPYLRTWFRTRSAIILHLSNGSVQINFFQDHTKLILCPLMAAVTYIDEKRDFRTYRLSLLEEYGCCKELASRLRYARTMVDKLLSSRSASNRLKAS

| Structure (SMILES) | IC50 |
| --- | --- |
| CCOC(=O)c1ccc(N=Cc2c(O)n(C)c(=O)n(C)c2=O)cc1 | > 50 µM (inactive) |
| CC(=O)N(/N=C1\Sc2ccccc2C1=O)c1cccc(Br)c1 | 20.9 µM |
| COc1ccc(N(/C=C2\Sc3ccccc3C2=O)C(C)=O)cc1 | > 50 µM (inactive) |
| CC(=O)N(CN1C(=O)c2ccccc2C1=O)c1cccc(C)c1 | > 50 µM (inactive) |
| COc1ccc(N(CN2C(=O)c3ccccc3C2=O)C(=O)C(F)(F)F)cc1 | > 50 µM (inactive) |
| Cc1cc(-n2c(C)cc(C=C3C(=O)NC(=O)NC3=O)c2C)ccc1I | 45.2 µM |
| CCn1nc(-c2ccccc2Br)nc2c(=O)n(C)c(=O)nc1-2 | 1.35 µM |
| COc1ccc(-c2nc3c(=O)n(C)c(=O)nc-3n(C)n2)cc1OC | 0.295 µM |
| CCn1c(N/C(O)=C/C(O)(C(F)(F)F)C(F)(F)F)nc2ccccc21 | > 50 µM (inactive) |
| CC(=O)N(CN1C(=O)c2ccccc2C1=O)c1ccc2ccccc2c1 | > 50 µM (inactive) |
| CCOC(=O)c1ccc(N=C(c2ccccc2)c2c(O)n(C)c(=O)n(C)c2=O)cc1 | > 50 µM (inactive) |
| Cc1ccccc1-c1nnc2[nH]c(=O)n(C)c(=O)c2n1 | > 50 µM (inactive) |
| Cn1c(=O)[nH]c2nnc(-c3ccc(C(F)(F)F)cc3)nc2c1=O | > 50 µM (inactive) |
| CCOC(=O)c1ccc(NC(=O)c2cc3ccccc3oc2=O)cc1 | > 50 µM (inactive) |
| CC(=O)N(/N=C1\Sc2ccccc2C1=O)c1ccc(Br)cc1 | 45.8 µM |
| CN(C)c1ccc(-c2nnc3c(n2)c(=O)n(C)c(=O)n3C)cc1 | > 50 µM (inactive) |
| Cn1c(=O)[nH]c2nnc(-c3ccc(F)cc3)nc2c1=O | > 50 µM (inactive) |
| CC(=O)N(/N=C1\Sc2ccccc2C1=O)c1ccccc1[N+](=O)[O-] | 18.7 µM |
| CC(=O)N(CN1C(=O)c2ccccc2C1=O)c1ccc(Br)cc1 | > 50 µM (inactive) |
| CCCC(=O)c1c(O)[nH]c(=O)[nH]c1=O | > 50 µM (inactive) |
| CC(=O)N(CN1C(=O)c2cc(Cl)c(Cl)cc2C1=O)c1ccc(C)c(Cl)c1 | > 50 µM (inactive) |
| CC(=O)N(/N=C1\Sc2ccccc2C1=O)c1cc(C)ccc1C | > 50 µM (inactive) |
| CC(=O)N(CN1C(=O)c2ccccc2C1=O)c1ccccc1C | > 50 µM (inactive) |
| CCCOC(=O)c1ccc(NC(=O)c2c(F)c(F)c(F)c(F)c2F)cc1 | > 50 µM (inactive) |

| Structure (SMILES) | IC50 |
| --- | --- |
| CCCOC(=O)c1ccc(NC(=O)c2ccc(OC)c([N+](=O)[O-])c2)cc1 | > 50 µM (inactive) |
| CCOC(=O)c1ccc(NC(=O)C2CCC(C(C)(C)C)CC2)cc1 (configuration not stated) | > 50 µM (inactive) |
| CC(=O)N(/N=C1\Sc2ccccc2C1=O)c1ccccc1Cl | > 50 µM (inactive) |
| COc1ccc(-c2nnc3[nH]c(=O)n(C)c(=O)c3n2)cc1OC | > 50 µM (inactive) |
| Cc1ccc(N(CN2C(=O)c3ccc([N+](=O)[O-])cc3C2=O)C(=O)C(c2ccccc2)c2ccccc2)cc1 | > 50 µM (inactive) |
| CCOC(=O)c1ccc(NC(=O)C2C3C=CC(C3)C2(C)C(=O)O)cc1 (configuration not stated) | > 50 µM (inactive) |
| Cn1c(=O)[nH]c2nnc(-c3ccc(Cl)cc3)nc2c1=O | > 50 µM (inactive) |
| CC(=O)N(/N=C1\Sc2ccccc2C1=O)c1ccccc1I | > 50 µM (inactive) |
| CCCCOC(=O)c1ccc(N=Cc2c(O)[nH]c(=O)[nH]c2=O)cc1 | > 50 µM (inactive) |
| CC(=O)c1ccc(N(CN2C(=O)c3ccc([N+](=O)[O-])cc3C2=O)C(C)=O)cc1 | > 50 µM (inactive) |
| Cn1c(=O)c2nc(-c3ccccc3)c(=O)n(C)c2n(C)c1=O | > 50 µM (inactive) |
| CCOC(=O)N1CCN(c2cc3nccnc3cc2F)CC1 | > 50 µM (inactive) |
| COc1ccc(N(/N=C2\Sc3ccccc3C2=O)C(C)=O)cc1 | 15.2 µM |
| COc1ccccc1N(/C=C1\Sc2ccccc2C1=O)C(C)=O | > 50 µM (inactive) |
| O=C1NC(=O)C(=Cc2cccn2-c2ccc([N+](=O)[O-])cc2)C(=O)N1 | > 50 µM (inactive) |
| CCCCOC(=O)c1ccc(NC(=O)c2cc(OCC)c(OCC)c(OCC)c2)cc1 | > 50 µM (inactive) |
| CCn1nc(-c2ccccc2C)nc2c(=O)n(C)c(=O)nc1-2 | 0.636 µM and 5.67 µM |
| CCOc1cc(-c2nnc3[nH]c(=O)n(C)c(=O)c3n2)ccc1OC(C)C | 28.9 µM |
| CCOC(=O)c1ccc(NC(=O)C2CCC(C)CC2)cc1 (configuration not stated) | > 50 µM (inactive) |
| CCOC(=O)c1ccc(N=Cc2c(O)n(-c3ccc(C)cc3)c(=O)[nH]c2=O)cc1 | > 50 µM (inactive) |
| CCOc1ccc(-c2nc3c(=O)n(C)c(=O)nc-3n(C)n2)cc1OC | 0.022 µM |
| COc1cc(C=C2C(=O)NC(=O)NC2=O)ccc1OCc1c(C)no[n+]1[O-] | > 50 µM (inactive) |
| COc1cc(C=C2C(=O)NC(=O)NC2=O)cc(Cl)c1O | > 50 µM (inactive) |
| CC(=O)N(/N=C1\Sc2ccccc2C1=O)c1ccccc1C | 37.4 µM |

| Structure (SMILES) | IC50 |
| --- | --- |
| CCn1nc(-c2ccc(C)cc2)nc2c(=O)n(C)c(=O)nc1-2 | 0.932 µM |
| CC(=O)N(/N=C1\Sc2ccccc2C1=O)c1cccc(C)c1 | 14 µM |
| CCOC(=O)c1ccc(NC(=O)C2C3CCC(C3)C2C(=O)O)cc1 (configuration not stated) | > 50 µM (inactive) |
| CCCCCC(=O)N(CN1C(=O)c2ccccc2C1=O)c1ccccc1OC | > 50 µM (inactive) |
| CCOC(=O)c1ccc(NC(=O)C2CC(=O)NC(=NC)S2)cc1 (configuration not stated) | > 50 µM (inactive) |
| CC(=O)Oc1c(Cl)c(N2CCOCC2)c(OC(C)=O)c2ccccc12 | > 50 µM (inactive) |
| Cc1ccccc1-c1nc2c(=O)n(C)c(=O)nc-2n(C)n1 | 1.68 µM and 4.03 µM |
| CC1CN(c2cc3nccnc3cc2F)CC(C)O1 (configuration not stated) | > 50 µM (inactive) |
| CCN(CC)CCOC(=O)c1ccc(N=Cc2c(O)n(C)c(=O)[nH]c2=O)cc1 | > 50 µM (inactive) |
| Cn1c(=O)[nH]c(=O)c2nc(-c3ccccc3)c(-c3ccccc3)nc21 | > 50 µM (inactive) |
| Cn1nc(-c2ccccc2)nc2c(=O)n(C)c(=O)nc1-2 | 1.45 µM |
| CCOC(=O)c1ccc(NC(=O)c2ccc(NC(=O)CC)cc2)cc1 | > 50 µM (inactive) |
| CCOC(=O)c1ccc(N=Cc2c(O)n(-c3cccc(OC)c3)c(=O)[nH]c2=O)cc1 | > 50 µM (inactive) |
| Cn1nc(-c2ccc(F)cc2)nc2c(=O)n(C)c(=O)nc1-2 | 0.325 µM |
| CC(=O)N(/C=C1\Sc2ccccc2C1=O)c1ccc(C)c(C)c1 | > 50 µM (inactive) |
| Cc1ccc(C(=O)CN2C=CC(=C(O)NCc3ccccc3)C=C2)cc1 | > 50 µM (inactive) |
| CCOC(=O)c1ccc(NC(=O)c2ccc3nc(N)sc3c2)cc1 | > 50 µM (inactive) |
| CCOC(=O)c1ccc(N=Cc2c(O)[nH]c(=O)[nH]c2=O)cc1 | > 50 µM (inactive) |
| CC(=O)N(/C=C1\Sc2ccccc2C1=O)c1cc(C(F)(F)F)ccc1Cl | > 50 µM (inactive) |
| CC(OC(=O)c1ccc(NC(=O)c2ccc(Br)cc2)cc1)C(=O)c1ccccc1 (configuration not stated) | > 50 µM (inactive) |
| CCOC(=O)c1ccc(N=Cc2c(O)n(Cc3cccs3)c(=O)[nH]c2=O)cc1 | > 50 µM (inactive) |
| CCOC(=O)c1ccc(N=Cc2c(O)n(C3CCCCC3)c(=O)n(C3CCCCC3)c2=O)cc1 | > 50 µM (inactive) |
| CCn1nc(-c2ccc(OC)cc2)nc2c(=O)n(C)c(=O)nc1-2 | 0.912 µM |
| O=c1[nH]c2c(c(O)c1-c1ccccc1)c(=O)n(-c1ccccc1)c(=O)n2-c1ccccc1 | > 50 µM (inactive) |

— PubChem BioAssay AID1083 (University of Pittsburgh Molecular Library Screening Center, 2008)
